Source: patent publication US10064840B2, “Pharmaceutical composition for the treatment of multi-drug resistant infections” (priority 2014, dated 2018)
Like-named read-outs stand apart in the source and are kept apart here.

Legend:
Type in all cases: cell-based
[1] = tested on: Staphylococcus aureus Mupr-1 (Mde A overexpressing); assay: Mde A efflux pump inhibition, broth checkerboard combination with mupirocin; details: for MIC: Staphylococcus aureus
Procedure: Staphylococcus aureus Mupr-1 (Mde A overexpressing) was prepared in-house from SA-1199-Wild type clinical isolate which was gifted by Prof. Dr G. W. Kaatz (Wayne State University School of Medicine, Detroit, Mich., USA) by serially passaging SA-1199 strain on mupirocin. Combination studies were performed by a broth checkerboard method. A series of twofold dilutions of test mupirocin in Muller Hinton Broth (pH 7.0) was tested in combination with twofold dilutions of boeravinone B in 96-well microtiter plates. The final concentrations of mupirocin ranged from 0.03 mg/L/ml to 64 mg/L and for boeravinone B from 0.8 mg/L to 50 mg/L. Bacterial inocula were prepared by adjusting the inoculum density of the overnight grown Staphylococcus aureus Mup^r-1 (Mde A overexpressing) to 0.5 McFarland (˜1.5×10^8 CFU/mL of Escherichia coli). Mde A overexpressing derivative S. aureus strain was prepared in lab upon mupirocin treatment (Mup^r-1) from S. aureus strain ATCC No. 29213 (American type culture collection Manassas, Va., USA). These inocula were diluted 1:100 in sterile normal saline and 100 μl of these diluted inocula was dispensed in each well. The final bacterial inoculum reached in each well was equal 5×10^5 CFU/mL. The plates were incubated at 37° C. for 24 hrs. The MIC was read visually as the lowest concentration of mupirocin inhibiting the growth of bacteria as evident from the absence of turbidity. […]

[2] = tested on: Staphylococcus aureus 1199B (Nor A overexpressing); assay: Nor A efflux pump inhibition, broth checkerboard combination with ciprofloxacin; details: for MEC4 (minimum effective concentration of compound that brings about 4 fold reduction in the MIC of Ciprofloxacin): in combination with ciprofloxacin
Procedure: Combination studies were performed by a broth checkerboard method A series of twofold dilutions of test ciprofloxacin in Muller Hinton Broth (pH 7.0) was tested in combination with twofold dilutions of boeravinone B in 96-well microtiter plates. The final concentrations of ciprofloxacin ranged from 0.03 mg/L/ml to 64 mg/L and for boeravinone B from 0.8 mg/L to 50 mg/L. Piperine at a same concentration range as that of boeravinone B was used as standard EPI. Nor A overexpressing derivative of a clinical isolate (SA-1199B) obtained from S. aureus strain ATCC No. 29213 (American Type Culture Collection Manassas, Va., USA) was kindly gifted by Dr G. W. Kaatz (Wayne State University School of Medicine, Detroit, Mich., USA). Bacterial inocula were prepared by adjusting the inoculum density of the overnight grown Staphylococcus aureus 1199B (Nor A overexpressing) to 0.5 McFarland (˜1.5×10^8 CFU/mL of Escherichia coli). These inocula were diluted 1:100 in sterile normal saline and 100 μl of these diluted inocula was dispensed in each well. The final bacterial inoculum reached in each well was equal 5×10^5 CFU/mL. The plates were incubated at 37° C. for 24 hrs. The MIC was read visually as the lowest concentration of ciprofloxacin inhibiting the growth of bacteria as evident from the absence of turbidity.

[3] = tested on: Staphylococcus aureus SA-K2191 (Msr A overexpressing); assay: Msr A efflux pump inhibition, broth checkerboard combination with erythromycin
Procedure: Combination studies were performed by a broth checkerboard method. A series of two-fold dilutions of test Erythromycin in Muller Hinton Broth (pH 7.0) was tested in combination with twofold dilutions of boeravinone B in 96-well microtiter plates. The final concentrations of erythromycin ranged from 0.03 mg/L/ml to 64 mg/L and for boeravinone B from 0.8 mg/L to 50 mg/L. MsrA overexpressing S. aureus derivative (RN4220) obtained by transforming with pSK265 into which the gene for MsrA has been cloned from S. aureus ATCC 29213 (American type culture collection Manassas, Va., USA) was kindly gifted by Dr G. W. Kaatz (Wayne State University School of Medicine, Detroit, Mich., USA). Bacterial inocula were prepared by adjusting the inoculum density of the overnight grown Staphylococcus aureus SA-K2191 (Msr A overexpressing) to 0.5 McFarland (˜1.5×10^8 CFU/mL of Escherichia coli). These inocula were diluted 1:100 in sterile normal saline and 100 μl of these diluted inocula was dispensed in each well. The final bacterial inoculum reached in each well was equal 5×10^5 CFU/mL. The plates were incubated at 37° C. for 24 hrs. The MIC was read visually as the lowest concentration of erythromycin inhibiting the growth of bacteria as evident from the absence of turbidity. […]

[4] = at 25 μM concentration of boeravinone B

SMILES: Cc1c(O)cc2oc3c(c(=O)c2c1O)-c1ccccc1OC3O (centres unmarked) [Boeravinone B, 6,9,11-trihydroxy-10-methyl[1]benzopyrano[3,4-b][1]benzopyran-12(6H)-one]
- MIC ([1]; read-out: MIC of mupirocin in presence of compound, compound concentration 0.7 μM): 256 µg/mL
- MIC ([1]; read-out: MIC of mupirocin in presence of compound, compound concentration 1.5 μM): 256 µg/mL
- MIC ([1]; read-out: MIC of mupirocin in presence of compound, compound concentration 3.12 μM): 256 µg/mL
- MIC ([1]; read-out: MIC of mupirocin in presence of compound, compound concentration 6.25 μM): 256 µg/mL
- MIC ([1]; read-out: MIC of mupirocin in presence of compound, compound concentration 12.5 μM): 128 µg/mL
- MIC ([1]; read-out: MIC of mupirocin in presence of compound, compound concentration 25 μM): 64 µg/mL
- MIC ([1]; read-out: MIC of mupirocin in presence of compound, compound concentration 50 μM): 64 µg/mL
- reduction of MIC of mupirocin [1, 4]: 4 fold
- enhancement in antibacterial activity of mupirocin ([1]; combination with mupirocin, MDR S. aureus, concentration not given): 4 folds
- MEC4 (minimum effective concentration of boeravinone B that brings about 4 fold reduction in the MIC of Mupirocin) ([1]; in combination with mupirocin): 25 µM
- decrease of the MIC of ciprofloxacin ([2]; at highest concentration (50 μM) of boeravinone B): 8 folds
- enhancement in antibacterial activity of ciprofloxacin ([2]; combination with ciprofloxacin, MDR S. aureus, concentration not given): 8 folds
- MIC of ciprofloxacin in presence of compound ([2]; compound concentration 0.7 μM): 8 µg/mL
- MIC of ciprofloxacin in presence of compound ([2]; compound concentration 1.5 μM): 8 µg/mL
- MIC of ciprofloxacin in presence of compound ([2]; compound concentration 3.12 μM): 4 µg/mL
- MIC of ciprofloxacin in presence of compound ([2]; compound concentration 6.25 μM): 4 µg/mL
- MIC of ciprofloxacin in presence of compound ([2]; compound concentration 12.5 μM): 2 µg/mL
- MIC of ciprofloxacin in presence of compound ([2]; compound concentration 25 μM): 1 µg/mL
- MIC of ciprofloxacin in presence of compound ([2]; compound concentration 50 μM): 1 µg/mL
- MEC4 (minimum effective concentration of compound that brings about 4 fold reduction in the MIC of Ciprofloxacin) [2]: 12.5 µM
- reduction of MIC of erythromycin [3, 4]: 4 folds
- enhancement in antibacterial activity of erythromycin ([3]; combination with erythromycin, MDR S. aureus, concentration not given): 4 folds
- MIC of Erythromycin in presence of compound ([3]; compound concentration 0.7 μM): 64 µg/mL
- MIC of Erythromycin in presence of compound ([3]; compound concentration 1.5 μM): 64 µg/mL
- MIC of Erythromycin in presence of compound ([3]; compound concentration 3.12 μM): 64 µg/mL
- MIC of Erythromycin in presence of compound ([3]; compound concentration 6.25 μM): 64 µg/mL
- MIC of Erythromycin in presence of compound ([3]; compound concentration 12.5 μM): 32 µg/mL
- MIC of Erythromycin in presence of compound ([3]; compound concentration 25 μM): 16 µg/mL
- MIC of Erythromycin in presence of compound ([3]; compound concentration 50 μM): 16 µg/mL
- MEC4 (minimum effective concentration of boeravinone B that brings about 4 fold reduction in the MIC of erythromycin) ([3]; in combination with erythromycin): 25 µM

SMILES: O=C(O)c1cn(C2CC2)c2cc(N3CCNCC3)c(F)cc2c1=O [Ciprofloxacin, ciprofloxacin, reference compound]
- MIC ([2]; Staphylococcus aureus, 24 h, read-out: MIC Ciprofloxacin Alone): 8 µg/mL

SMILES: CC[C@H]1OC(=O)[C@H](C)[C@@H](O[C@H]2C[C@@](C)(OC)[C@@H](O)[C@H](C)O2)[C@H](C)[C@@H](O[C@@H]2O[C@H](C)C[C@H](N(C)C)[C@H]2O)[C@](C)(O)C[C@@H](C)C(=O)[C@H](C)[C@@H](O)[C@]1(C)O [Erythromycin, erythromycin, reference compound]
- MIC ([3]; Staphylococcus aureus, 24 h, read-out: MIC of Erythromycin Alone): 64 µg/mL

SMILES: O=C(/C=C/C=C/c1ccc2c(c1)OCO2)N1CCCCC1 [Piperine, reference compound]
- MIC of ciprofloxacin in presence of compound ([2]; compound concentration 0.7 μM): 8 µg/mL
- MIC of ciprofloxacin in presence of compound ([2]; compound concentration 1.5 μM): 8 µg/mL
- MIC of ciprofloxacin in presence of compound ([2]; compound concentration 3.12 μM): 8 µg/mL
- MIC of ciprofloxacin in presence of compound ([2]; compound concentration 6.25 μM): 8 µg/mL
- MIC of ciprofloxacin in presence of compound ([2]; compound concentration 12.5 μM): 8 µg/mL
- MIC of ciprofloxacin in presence of compound ([2]; compound concentration 25 μM): 4 µg/mL
- MIC of ciprofloxacin in presence of compound ([2]; compound concentration 50 μM): 4 µg/mL
- MEC4 (minimum effective concentration of compound that brings about 4 fold reduction in the MIC of Ciprofloxacin) [2]: >50 µM

SMILES: C/C(=C\C(=O)OCCCCCCCCC(=O)O)C[C@@H]1OC[C@H](C[C@@H]2O[C@H]2[C@@H](C)[C@H](C)O)[C@@H](O)[C@H]1O [mupirocin, reference compound]
- MIC ([1]; 24 h, read-out: MIC of mupirocin Alone, mupirocin alone, S. aureus Mupr-1, 24 hrs): 256 µg/mL
